Measurements reported in patent US12268723B2, “Peptidomimetics for the treatment of coronavirus and picorna virus infections” (priority 2019, dated 2025).
Where two headings read alike, the source gives them in different places.

Key:
[1] = Cytotoxicity (MTS) in RD cells; type: cell-based, human; conditions: human, RD (rhabdomyosarcoma) cells
Method: Compounds are tested for cytotoxicity using a MTS (3-(4,5-dimethylthiazol-2-yl)-5-(3-carboxymethoxyphenyl)-2-(4-sulfophenyl)-2H-tetrazolium) method and the CC50 (IC50) values (cytotoxic concentrations of drug required to reduce cell viability by 50%) are determined for each test compound in human rhabdomyosarcoma (RD) cell line. In addition, the maximum non-toxic concentrations (MNTC) are also determined for each compound. To avoid potential drug toxicity that would interfere with viral cytopathic effect (CPE), compounds are evaluated at nontoxic concentrations. The resultant inhibitory effect of each test compound is calculated as a percentage of decrease in EV-71 CPE. Briefly, a monolayer of RD cells is prepared in a 96-well plates. The cells are then infected with 1 MOI of EV-71 (BrCr strain) followed by treatment with a single non-toxic dose of each compound in triplicate. The vehicle control wells are treated with 0.1% DMSO diluted in the working media. […] The dose-response antiviral activity of each compound is determined by a virus yield reduction assay method. Briefly, confluent monolayers of RD cells in 96-wells microplate are infected with 0.1 MOI of EV-71 followed by treatment with compounds. […] Quantitative PCR measurement was performed using StepOnePlus real time PCR system ([…]) according to manufacturer's protocol.

[2] = system: Enterovirus EV-71 (BrCr strain); assay: Anti-enterovirus activity, EV-71 virus yield reduction (qRT-PCR) in RD cells; type: cell-based; conditions: for EC50 / EC90: 0.1 MOI, 2 days post-treatment; for EC50: read-out: EC50 against Enterovirus EV-71 (BrCr strain); for EC90: read-out: EC90 against Enterovirus EV-71 (BrCr strain); for IC50: given as IC50, read-out: IC50 against Enterovirus EV-71 (BrCr strain); for IC90: given as IC90, read-out: IC90 against Enterovirus EV-71 (BrCr strain)
Method: Compounds are tested for cytotoxicity using a MTS (3-(4,5-dimethylthiazol-2-yl)-5-(3-carboxymethoxyphenyl)-2-(4-sulfophenyl)-2H-tetrazolium) method and the CC50 (IC50) values (cytotoxic concentrations of drug required to reduce cell viability by 50%) are determined for each test compound in human rhabdomyosarcoma (RD) cell line. In addition, the maximum non-toxic concentrations (MNTC) are also determined for each compound. To avoid potential drug toxicity that would interfere with viral cytopathic effect (CPE), compounds are evaluated at nontoxic concentrations. The resultant inhibitory effect of each test compound is calculated as a percentage of decrease in EV-71 CPE. Briefly, a monolayer of RD cells is prepared in a 96-well plates. The cells are then infected with 1 MOI of EV-71 (BrCr strain) followed by treatment with a single non-toxic dose of each compound in triplicate. The vehicle control wells are treated with 0.1% DMSO diluted in the working media. The plate is then incubated for 48 h at which time the virus-control wells produced detectable CPE. To determine the probable CPE inhibitory effect of test compounds, an MTS assay is performed and effective compounds are chosen for further studies to identify the potency of the compounds and their concentration-dependent manner. The dose-response antiviral activity of each compound is determined by a virus yield reduction assay method. Briefly, confluent monolayers of RD cells in 96-wells microplate are infected with 0.1 MOI of EV-71 followed by treatment with compounds. Effective compounds are further quantified and confirmed with a virus-yield-reduction assay using an optimized in house qRT-PCR to determine the EV-71 RNA copy number after 2 days post-treatment from collected supernatants. qRT-PCR is performed using the EV-71 specific probe/primer mix and qScript-Tough master mix (Quantibio, USA). Quantitative PCR measurement was performed using StepOnePlus real time PCR system ([…]) according to manufacturer's protocol. The median effective concentration (EC50) and the concentration with 90% of inhibitory effect (EC90) are calculated using GraphPad PRISM for Windows, version 5 (GraphPad Software Inc., San Diego, CA, 2005) as the means±standard deviation (SD) of the mean from triplicate assay from three independent experiments.

SARS-CoV-2 = assay: microbe, parasite or virus in culture; type: cell-based; conditions: Severe acute respiratory syndrome coronavirus 2, Vero cells
HCoV (OC43) = assay: In vitro assay for HCoV (OC43), virus yield reduction in Huh7 cells; type: cell-based; conditions: Betacoronavirus 1, OC43, Huh-7, 10 μM
Description: In order to determine the potential effect of each selected compound against in vitro replication of SARS-CoV-2 in Vero cells or HCoV (OC43) in Huh7 cells, a confluent cell monolayer in a 96-wells cell culture microplate can be infected at a multiplicity of infection (MOI) of 0.1 and treated with a maximum non-toxic concentration (MNTC) of each compound. To assess the antiviral activity, a virus yield reduction assay using specific qRT-PCR for each virus can be performed.
Dose-Dependent Antiviral Assay. The antiviral effect of each compound selected through the antiviral evaluation assay can be further confirmed by virus yield reduction assay using the optimized qRT-PCR by measuring the RNA copy number for each virus in the supernatant of treated-infected cells. A positive control, such as remdesivir, can be used for each assay.
Statistical analysis. The half-maximal effective concentration (EC50) and the concentration with 90% of inhibitory effect (EC90) can be calculated using GraphPad PRISM for Windows, version 5 (GraphPad Software Inc., San Diego, CA, 2005) or the Chou and Talalay Method.
These methods were used to evaluate certain of the compounds described herein.

Row | Compound | CC50 [1] [µM] | EC50 ([2]; RD, 48 h) [µM] | EC90 ([2]; RD, 48 h) [µM] | other results
1 | CC(C)C[C@H](NC(=O)[C@H](Cc1ccc(O)cc1)NC(=O)OCc1ccccc1)C(=O)N[C@H](C=O)C[C@@H]1CCCNC1=O | > 100 | 0.19 | 0.36 | –
2 | CC(C)C[C@H](NC(=O)OCc1ccccc1)C(=O)NC(C=O)C[C@@H]1CCCNC1=O (stereo partly shown) | > 100 | 0.05 | 0.13 | –
3 | COC(=O)C1O[C@@H]1[C@H](C[C@@H]1CCNC1=O)NC(=O)[C@H](CC(C)C)NC(=O)[C@H](Cc1cccc2ccccc12)NC(=O)OCc1ccccc1 (stereo partly shown) | 80.2 | 0.19 | 0.36 | –
4 | CC(C)C[C@H](NC(=O)[C@H](Cc1cccc2ccccc12)NC(=O)OCc1ccccc1)C(=O)N[C@H](C=O)C[C@@H]1CCNC1=O | > 100 | 0.09 | 0.26 | –
5 | CC(C)C[C@H](NC(=O)[C@H](Cc1ccc(F)cc1)NC(=O)c1cnccn1)C(=O)N[C@H](C=O)C[C@@H]1CCNC1=O | > 100 | – | – | IC50 [2]: 0.09 µM; IC90 [2]: 0.57 µM
6 | CC(C)C[C@H](NC(=O)[C@H](Cc1cccc2ccccc12)NC(=O)OCc1ccccc1)C(=O)N[C@@H](CC1CCNC1=O)[C@H]1O[C@@H]1S(C)(=O)=O (stereo partly shown) | > 100 | 1.44 | 5.02 | –
7 | CC(C)C[C@H](NC(=O)[C@H](Cc1cccc2ccccc12)NC(=O)OCCc1ccccc1)C(=O)N[C@H](C=O)C[C@@H]1CCNC1=O | 42.5 | 0.75 | 2.11 | –
8 | CC(C)C[C@H](NC(=O)[C@H](Cc1ccc(O)cc1)NC(=O)OCc1ccccc1)C(=O)N[C@H](C=O)CC1CCNC1=O (stereo partly shown) | – | 2.3 | 4.8 | CC50 ([1]; unit inferred): > 100 µM
9 | CC(C)C[C@H](NC(=O)[C@H](Cc1ccc(F)cc1)NC(=O)c1cnccn1)C(=O)N[C@H](C=O)C[C@@H]1CCCNC1=O | > 100 | 0.28 | 0.57 | –
10 | CC(C)C[C@H](NC(=O)[C@H](Cc1ccc(F)cc1)NC(=O)OCc1ccccc1)C(=O)N[C@H](C=O)C[C@@H]1CCNC1=O | > 100 | 0.03 | 0.06 | –
11 | Cc1cc(C(=O)N[C@@H](CC(C)C)C(=O)N[C@H](C=O)C[C@@H]2CCCNC2=O)no1 | > 100 | 1.1 | 4 | –
12 | CC(C)C[C@H](NC(=O)[C@@H](Cc1cccc2ccccc12)NC(=O)OCc1ccccc1)C(=O)N[C@H](C=O)C[C@@H]1CCCNC1=O | 32.5 | – | – | IC50 [2]: 0.0088 µM; IC90 [2]: 0.03 µM
13 | Cc1cc(C(=O)N[C@@H](Cc2ccc(F)cc2)C(=O)N[C@@H](CC(C)C)C(=O)N[C@H](C=O)C[C@@H]2CCCNC2=O)no1 | > 100 | 0.0094 | 0.0166 | –
14 | CC(C)C[C@H](NC(=O)[C@H](Cc1cccc2ccccc12)NC(=O)c1cnccn1)C(=O)N[C@H](C=O)C[C@@H]1CCNC1=O | > 100 | – | – | IC50 [2]: 0.0172 µM; IC90 [2]: 0.064 µM
15 | CC(C)C[C@H](NC(=O)[C@H](Cc1cccc2ccccc12)NC(=O)c1cnccn1)C(=O)N[C@H](C=O)C[C@@H]1CCCNC1=O | > 100 | 0.0158 | 0.0475 | –
16 | Cc1cc(C(=O)N[C@@H](Cc2cccc3ccccc23)C(=O)N[C@@H](CC(C)C)C(=O)NC(C=O)C[C@@H]2CCCNC2=O)no1 (single isomer, unassigned) | > 100 | – | – | EC50 [2]: 0.0017 µM; EC90 [2]: 0.0075 µM
17 | CC(C)C[C@H](NC(=O)[C@H](Cc1cccc2ccccc12)NC(=O)OCc1ccccc1)C(=O)N[C@H](/C=C(\C#N)C(N)=O)C[C@@H]1CCCNC1=O [Compound 36, Benzyl ((S)-1-(((S)-1-(((S,E)-5-amino-4-cyano-5-oxo-1-((S)-2-oxopiperidin-3-yl)pent-3-en-2-yl)amino)-4-methyl-1-oxopentan-2-yl)amino)-3-(naphthalen-1-yl)-1-oxopropan-2-yl)carbamate] | – | – | – | inhibition at 10 µM (SARS-CoV-2; 10 μM, read-out: SARS-CoV-2 Inhibition at 10 μM (%)): 99.8%; inhibition at 10 µM (HCoV (OC43)): 99.9%
18 | Cc1cc(C(=O)N[C@@H](Cc2cccc3ccccc23)C(=O)N[C@@H](CC(C)C)C(=O)N[C@H](C=O)C[C@@H]2CCCNC2=O)no1 [Compound 91, 5-Methyl-N—((S)-1-(((S)-4-methyl-1-oxo-1-(((S)-1-oxo-3-((S)-2-oxopiperidin-3-yl)propan-2-yl)amino)pentan-2-yl)amino)-3-(naphthalen-1-yl)-1-oxopropan-2-yl)isoxazole-3-carboxamide] | – | – | – | EC50 (SARS-CoV-2; unit inferred, read-out: Activity against SARS-CoV-2 EC50): 0.6 µM; EC90 (SARS-CoV-2; unit inferred, read-out: Activity against SARS-CoV-2 EC90): 2.3 µM
19 | CC(C)C[C@H](NC(=O)[C@H](Cc1cccc2ccccc12)NC(=O)OCc1ccccc1)C(=O)N[C@@H](C[C@@H]1CCCNC1=O)C(=O)C(F)(F)F [drawing 122] | 65 | 0.32 | 0.58 | –
20 | CC(C)C[C@H](NC(=O)[C@H](Cc1cccc2ccccc12)NC(=O)OCc1ccccc1)C(=O)N[C@@H](C[C@@H]1CCCNC1=O)C(O)C(F)(F)F (stereo partly shown) [drawing 125] | 25 | 0.31 | 0.58 | –
21 | CC(C)C[C@H](NC(=O)[C@H](Cc1cccc2ccccc12)NC(=O)OCc1ccccc1)C(=O)N[C@@H](C[C@@H]1CCCNC1=O)C(O)S(=O)(=O)O (stereo partly shown) [drawing 134] | 95 | – | – | IC50 [2]: 0.0118 µM; IC90 [2]: 0.03 µM
22 | CC(C)C[C@H](NC(=O)[C@H](Cc1ccc(F)cc1)NC(=O)OCc1ccccc1)C(=O)N[C@H](C=O)C[C@@H]1CCCNC1=O [drawing 135] | > 100 | – | – | IC50 [2]: 0.0103 µM; IC90 [2]: 0.0291 µM
